Data published in ChEMBL document CHEMBL3112568, “Synthesis, antifungal activities and molecular docking studies of novel 2-(2,4-difluorophenyl)-2-hydroxy-3-(1H-1,2,4-triazol-1-yl)propyl dithiocarbamates” (2014).
≈ marks a conversion by molar mass, not a printed value.

Experiments:
Assay type in all cases: functional
Candida albicans [1] = experiment: Antifungal activity against Candida albicans SC5314 after 24 hrs by micro-broth dilution method; details: SC5314, 24 h
Nannizzia gypsea = experiment: Antifungal activity against Microsporum gypseum by micro-broth dilution method
Nakaseomyces glabratus = experiment: Antifungal activity against Candida glabrata by micro-broth dilution method
Candida parapsilosis = experiment: Antifungal activity against Candida parapsilosis by micro-broth dilution method; details: Lodderomyces parapsilosis
Cryptococcus neoformans = experiment: Antifungal activity against Cryptococcus neoformans after 72 hrs by micro-broth dilution method
Trichophyton rubrum = experiment: Antifungal activity against Trichophyton rubrum by micro-broth dilution method
Candida albicans [2] = experiment: Antifungal activity against Candida albicans Y0109 after 24 hrs by micro-broth dilution method; details: Y0109, 24 h
Aspergillus fumigatus = experiment: Antifungal activity against Aspergillus fumigatus by micro-broth dilution method

SMILES: CCNC(=S)SCC(O)(Cn1cncn1)c1ccc(F)cc1F (racemic)
- MIC80 (Candida albicans [1]): 1 µg/mL (≈ 2.79 µM)
- MIC80 (Nannizzia gypsea): > 64 µg/mL
- MIC80 (Nakaseomyces glabratus): 4 µg/mL (≈ 11.2 µM)
- MIC80 (Candida parapsilosis): > 64 µg/mL
- MIC80 (Cryptococcus neoformans): 64 µg/mL (≈ 179 µM)
- MIC80 (Trichophyton rubrum): 4 µg/mL (≈ 11.2 µM)
- MIC80 (Candida albicans [2]): 1 µg/mL (≈ 2.79 µM)
- MIC80 (Aspergillus fumigatus): > 64 µg/mL

SMILES: O=C1CCN(C(=S)SCC(O)(Cn2cncn2)c2ccc(F)cc2F)CC1 (racemic)
- MIC80 (Candida albicans [1]): ≤ 0.125 µg/mL
- MIC80 (Nannizzia gypsea): 32 µg/mL (≈ 77.6 µM)
- MIC80 (Nakaseomyces glabratus): ≤ 0.125 µg/mL
- MIC80 (Candida parapsilosis): 1 µg/mL (≈ 2.42 µM)
- MIC80 (Cryptococcus neoformans): 2 µg/mL (≈ 4.85 µM)
- MIC80 (Trichophyton rubrum): 2 µg/mL (≈ 4.85 µM)
- MIC80 (Candida albicans [2]): ≤ 0.125 µg/mL
- MIC80 (Aspergillus fumigatus): 8 µg/mL (≈ 19.4 µM)

SMILES: COc1cccc(N2CCN(C(=S)SCC(O)(Cn3cncn3)c3ccc(F)cc3F)CC2)c1 (racemic)
- MIC80 (Candida albicans [1]): ≤ 0.125 µg/mL
- MIC80 (Nannizzia gypsea): 4 µg/mL (≈ 7.91 µM)
- MIC80 (Nakaseomyces glabratus): 0.25 µg/mL (≈ 0.494 µM)
- MIC80 (Candida parapsilosis): 0.5 µg/mL (≈ 0.989 µM)
- MIC80 (Cryptococcus neoformans): 0.25 µg/mL (≈ 0.494 µM)
- MIC80 (Trichophyton rubrum): 1 µg/mL (≈ 1.98 µM)
- MIC80 (Candida albicans [2]): ≤ 0.125 µg/mL
- MIC80 (Aspergillus fumigatus): 16 µg/mL (≈ 31.6 µM)
